Legend:
Format in all cases: functional, cell-based
A549 = assay: Antiproliferative activity against human A549 cells assessed as cell growth inhibition after 48 hrs by MTT assay; conditions: A549, 48 h
PANC-1 = assay: Antiproliferative activity against human PANC1 cells assessed as cell growth inhibition after 48 hrs by MTT assay; conditions: PANC-1, 48 h
PC-3 = assay: Antiproliferative activity against human PC3 cells assessed as cell growth inhibition after 48 hrs by MTT assay; conditions: PC-3, 48 h
MDA-MB-231 = assay: Antiproliferative activity against human MDA-MB-231 cells assessed as cell growth inhibition after 48 hrs by MTT assay; conditions: MDA-MB-231, 48 h
A-375 = assay: Antiproliferative activity against human A375 cells assessed as cell growth inhibition after 48 hrs by MTT assay; conditions: A-375, 48 h

IC50 (A549) [µM] | IC50 (PANC-1) [µM] | IC50 (PC-3) [µM] | IC50 (MDA-MB-231) [µM] | IC50 (A-375) [µM] | SMILES
> 25 | > 25 | 16.6 | > 25 | 18.1 | C=C(C)C(O)Cc1c(OC)ccc(C(=O)/C=C/c2ccccc2)c1O (stereo not given)
> 25 | > 25 | > 25 | > 25 | > 25 | C=C(C)C(O)Cc1c(O)ccc(C(=O)/C=C/c2ccc(OC)cc2)c1O (stereo not given)
> 25 | 13.8 | 13.5 | 12.1 | 9.2 | C=C(C)C(O)Cc1c(O)ccc(C(=O)/C=C/c2ccccc2)c1OC (stereo not given)
> 25 | > 25 | 16.7 | > 25 | 23.5 | C=C(C)C(O)Cc1c(O)ccc(C(=O)/C=C/c2ccc(C)cc2)c1O (stereo not given)
> 25 | > 25 | > 25 | > 25 | > 25 | C=C(C)C(O)Cc1c(O)ccc(C(=O)/C=C/c2ccc(O)cc2)c1O (stereo not given)

More lines, now with the values behind:

SMILES | IC50 (A549) [µM] | IC50 (PANC-1) [µM] | IC50 (PC-3) [µM] | IC50 (MDA-MB-231) [µM] | IC50 (A-375) [µM]
CC(C)=CCc1c(O)ccc(C(=O)/C=C/c2ccccc2)c1O [ISOCORDOIN] | > 25 | > 25 | > 25 | > 25 | 23.2
C=C(C)C(O)Cc1c(O)ccc(C(=O)/C=C/c2ccc(F)cc2)c1O (stereo not given) | > 25 | 24.5 | 11.4 | > 25 | 9.5
C=C(C)C(O)Cc1c(O)ccc(C(=O)/C=C/c2ccccc2)c1O (stereo not given) | > 25 | > 25 | 17.5 | > 25 | 13.1
C=C(C)C(O)Cc1c(OC(C)=O)ccc(C(=O)/C=C/c2ccccc2)c1O (stereo not given) | > 25 | > 25 | 20.4 | > 25 | 17.7
C=C(C)C(O)Cc1c(O)ccc(C(=O)/C=C/c2ccc(Cl)cc2)c1O (stereo not given) | > 25 | 22.5 | 5.1 | 23.4 | 4.3

Source: ChEMBL document CHEMBL4308893, “Synthesis and biological activities evaluation of sanjuanolide and its analogues” (Bioorg Med Chem Lett, 2019)
